Data: the kinase profiling compilation of Christmann-Franck et al. (2016)

What was measured:
Assay in all cases: KINOMEscan competition binding
Details in all cases: compound 10.0 µM
PAK2 (human) = PAK2 (human) (UniProt Q13177)
SRPK3 (human) = SRPK3 (human) (UniProt Q9UPE1)
MAP3K12 (human) = MAP3K12 (human) (UniProt Q12852)
NLK (human) = NLK (human) (UniProt Q9UBE8)
[1] = system: BMX (human), P51813 [V600E]
STK10 (human) = STK10 (human) (UniProt O94804)
DDR1 (human) = DDR1 (human) (UniProt Q08345)
DDR1 (human), sequence (Q08345 whole entry, looked up): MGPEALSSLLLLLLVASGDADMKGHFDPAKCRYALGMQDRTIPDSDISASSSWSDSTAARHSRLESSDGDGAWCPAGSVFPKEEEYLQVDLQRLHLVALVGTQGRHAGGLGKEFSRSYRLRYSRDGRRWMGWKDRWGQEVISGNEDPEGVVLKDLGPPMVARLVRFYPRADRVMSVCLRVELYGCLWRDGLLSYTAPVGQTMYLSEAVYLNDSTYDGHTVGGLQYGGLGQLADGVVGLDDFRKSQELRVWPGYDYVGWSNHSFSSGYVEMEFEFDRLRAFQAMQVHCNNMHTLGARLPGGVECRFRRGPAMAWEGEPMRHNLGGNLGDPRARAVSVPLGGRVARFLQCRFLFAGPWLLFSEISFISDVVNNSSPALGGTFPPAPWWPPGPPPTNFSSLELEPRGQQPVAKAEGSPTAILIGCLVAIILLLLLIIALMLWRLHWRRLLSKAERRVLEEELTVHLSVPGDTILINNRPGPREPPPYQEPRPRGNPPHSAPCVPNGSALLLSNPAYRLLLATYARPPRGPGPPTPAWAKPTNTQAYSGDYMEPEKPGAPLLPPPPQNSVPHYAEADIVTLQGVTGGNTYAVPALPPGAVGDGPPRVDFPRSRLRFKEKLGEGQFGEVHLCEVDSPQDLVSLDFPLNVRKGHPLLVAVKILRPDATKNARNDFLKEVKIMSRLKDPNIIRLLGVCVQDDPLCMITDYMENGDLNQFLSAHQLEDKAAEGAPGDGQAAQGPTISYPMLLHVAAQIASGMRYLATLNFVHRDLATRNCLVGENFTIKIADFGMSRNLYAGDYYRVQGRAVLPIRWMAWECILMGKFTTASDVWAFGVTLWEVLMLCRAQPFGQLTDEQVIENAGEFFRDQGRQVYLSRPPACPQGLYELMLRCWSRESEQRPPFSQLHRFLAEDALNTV

STK17B (human) = STK17B (human) (UniProt O94768)
FGFR3 (human) = FGFR3 (human) (UniProt P22607)
FGFR3 (human), sequence (P22607 whole entry, looked up): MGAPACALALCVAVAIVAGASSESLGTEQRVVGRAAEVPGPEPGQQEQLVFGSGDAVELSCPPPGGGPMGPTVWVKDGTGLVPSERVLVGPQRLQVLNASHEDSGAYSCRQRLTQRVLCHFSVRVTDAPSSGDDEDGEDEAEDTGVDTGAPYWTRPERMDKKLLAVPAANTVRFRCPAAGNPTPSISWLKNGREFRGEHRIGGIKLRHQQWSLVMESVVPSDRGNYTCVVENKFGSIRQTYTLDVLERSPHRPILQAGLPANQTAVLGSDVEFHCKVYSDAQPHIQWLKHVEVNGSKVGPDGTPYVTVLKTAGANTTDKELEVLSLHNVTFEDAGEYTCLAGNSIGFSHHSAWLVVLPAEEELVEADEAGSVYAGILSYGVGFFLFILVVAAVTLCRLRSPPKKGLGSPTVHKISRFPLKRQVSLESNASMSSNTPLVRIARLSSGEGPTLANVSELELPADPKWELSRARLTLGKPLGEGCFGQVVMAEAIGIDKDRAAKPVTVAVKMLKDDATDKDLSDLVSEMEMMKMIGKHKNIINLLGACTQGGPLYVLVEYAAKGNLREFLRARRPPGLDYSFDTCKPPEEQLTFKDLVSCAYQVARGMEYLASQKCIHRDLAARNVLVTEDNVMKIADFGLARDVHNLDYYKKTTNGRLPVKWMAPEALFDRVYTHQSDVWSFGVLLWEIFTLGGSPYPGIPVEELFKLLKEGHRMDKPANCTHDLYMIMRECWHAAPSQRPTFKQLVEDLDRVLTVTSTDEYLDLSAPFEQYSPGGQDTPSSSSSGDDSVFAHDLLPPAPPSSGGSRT

PLK4 (human) = PLK4 (human) (UniProt O00444)
EIF2AK2 (human) = EIF2AK2 (human) (UniProt P19525)
SRPK2 (human) = SRPK2 (human) (UniProt P78362)
SRPK2 (human), sequence (P78362 whole entry, looked up): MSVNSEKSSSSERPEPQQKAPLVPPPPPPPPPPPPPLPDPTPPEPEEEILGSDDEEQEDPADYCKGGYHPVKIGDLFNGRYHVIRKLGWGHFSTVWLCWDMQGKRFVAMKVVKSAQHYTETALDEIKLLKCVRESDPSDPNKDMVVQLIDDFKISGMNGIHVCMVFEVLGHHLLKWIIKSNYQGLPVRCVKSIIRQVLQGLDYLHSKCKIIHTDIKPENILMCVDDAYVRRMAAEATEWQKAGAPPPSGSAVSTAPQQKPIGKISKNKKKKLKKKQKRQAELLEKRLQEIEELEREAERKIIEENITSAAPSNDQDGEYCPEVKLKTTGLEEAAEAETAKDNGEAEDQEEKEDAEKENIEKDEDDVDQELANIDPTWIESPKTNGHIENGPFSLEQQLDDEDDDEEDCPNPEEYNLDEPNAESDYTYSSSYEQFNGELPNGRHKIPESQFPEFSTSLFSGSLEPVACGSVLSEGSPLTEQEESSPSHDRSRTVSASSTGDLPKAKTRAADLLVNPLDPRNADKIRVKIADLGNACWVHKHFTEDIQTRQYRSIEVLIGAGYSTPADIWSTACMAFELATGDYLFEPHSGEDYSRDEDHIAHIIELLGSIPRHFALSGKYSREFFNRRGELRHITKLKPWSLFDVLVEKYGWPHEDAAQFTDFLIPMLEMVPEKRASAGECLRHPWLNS

LCK (human) = LCK (human) (UniProt P06239)
LCK (human), sequence (P06239 whole entry, looked up): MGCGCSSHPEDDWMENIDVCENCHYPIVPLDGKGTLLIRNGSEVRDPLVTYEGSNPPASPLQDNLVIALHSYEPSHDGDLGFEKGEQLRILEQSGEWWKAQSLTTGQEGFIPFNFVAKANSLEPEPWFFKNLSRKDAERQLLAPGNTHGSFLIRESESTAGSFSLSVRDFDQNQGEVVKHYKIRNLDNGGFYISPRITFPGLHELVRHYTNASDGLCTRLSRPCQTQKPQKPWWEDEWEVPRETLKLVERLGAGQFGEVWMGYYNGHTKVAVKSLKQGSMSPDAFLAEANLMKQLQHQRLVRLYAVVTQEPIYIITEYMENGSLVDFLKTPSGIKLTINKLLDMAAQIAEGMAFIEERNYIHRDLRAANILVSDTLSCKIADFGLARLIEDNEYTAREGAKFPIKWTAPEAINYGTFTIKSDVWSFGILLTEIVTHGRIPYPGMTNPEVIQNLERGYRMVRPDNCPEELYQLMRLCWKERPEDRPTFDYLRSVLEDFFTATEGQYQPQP

[2] = system: EGFR (human), P00533 [G719C]
MAP2K4 (human) = MAP2K4 (human) (UniProt P45985)
MAP2K4 (human), sequence (P45985 whole entry, looked up): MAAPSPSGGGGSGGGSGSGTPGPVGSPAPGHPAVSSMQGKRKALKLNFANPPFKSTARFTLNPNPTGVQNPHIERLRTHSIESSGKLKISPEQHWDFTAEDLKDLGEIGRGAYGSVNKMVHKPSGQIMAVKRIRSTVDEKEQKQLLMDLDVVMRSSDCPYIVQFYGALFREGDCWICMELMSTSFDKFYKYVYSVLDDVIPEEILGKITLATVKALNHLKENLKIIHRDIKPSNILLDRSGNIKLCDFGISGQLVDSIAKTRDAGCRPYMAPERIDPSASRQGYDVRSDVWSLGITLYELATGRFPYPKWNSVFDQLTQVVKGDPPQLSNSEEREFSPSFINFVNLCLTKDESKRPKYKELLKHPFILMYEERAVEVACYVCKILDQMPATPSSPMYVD

DSTYK (human) = DSTYK (human) (UniProt Q6XUX3)
BMPR1A (human) = BMPR1A (human) (UniProt P36894)
TTK (human) = TTK (human) (UniProt P33981)
GRK1 (human) = GRK1 (human) (UniProt Q15835)
MAPK8 (human) = MAPK8 (human) (UniProt P45983)
MKNK2 (human) = MKNK2 (human) (UniProt Q9HBH9)
ANKK1 (human) = ANKK1 (human) (UniProt Q8NFD2)
EPHB6 (human) = EPHB6 (human) (UniProt O15197)
[3] = system: KIT (human), P10721 [D816H]
KIT (human), P10721 [D816H], sequence (P10721 whole entry D816H, looked up): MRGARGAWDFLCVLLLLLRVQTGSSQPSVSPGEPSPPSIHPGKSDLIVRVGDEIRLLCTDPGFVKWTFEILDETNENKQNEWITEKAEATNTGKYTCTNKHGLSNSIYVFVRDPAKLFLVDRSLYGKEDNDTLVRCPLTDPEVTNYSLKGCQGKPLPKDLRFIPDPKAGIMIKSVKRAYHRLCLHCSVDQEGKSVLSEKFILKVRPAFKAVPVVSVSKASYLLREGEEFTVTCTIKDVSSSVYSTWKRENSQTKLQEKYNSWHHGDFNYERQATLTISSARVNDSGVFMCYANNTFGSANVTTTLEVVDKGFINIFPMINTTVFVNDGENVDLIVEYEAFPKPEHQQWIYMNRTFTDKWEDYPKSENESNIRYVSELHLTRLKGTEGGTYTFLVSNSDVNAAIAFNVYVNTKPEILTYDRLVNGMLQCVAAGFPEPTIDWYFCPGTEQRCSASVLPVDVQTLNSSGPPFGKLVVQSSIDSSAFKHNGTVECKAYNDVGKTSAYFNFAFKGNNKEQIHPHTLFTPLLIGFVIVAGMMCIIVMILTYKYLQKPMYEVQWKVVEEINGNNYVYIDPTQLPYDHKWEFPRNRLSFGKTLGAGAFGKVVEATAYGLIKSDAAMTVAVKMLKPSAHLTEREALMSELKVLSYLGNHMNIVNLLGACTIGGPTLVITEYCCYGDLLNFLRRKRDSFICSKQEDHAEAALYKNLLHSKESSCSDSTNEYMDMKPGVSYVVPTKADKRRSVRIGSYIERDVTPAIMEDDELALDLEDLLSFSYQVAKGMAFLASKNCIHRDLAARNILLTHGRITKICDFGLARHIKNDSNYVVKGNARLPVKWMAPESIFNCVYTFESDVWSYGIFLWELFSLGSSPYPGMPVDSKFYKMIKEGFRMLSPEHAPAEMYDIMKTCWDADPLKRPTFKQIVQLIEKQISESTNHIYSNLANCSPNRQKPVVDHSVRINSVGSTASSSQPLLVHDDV

MAPK13 (human) = MAPK13 (human) (UniProt O15264)
MERTK (human) = MERTK (human) (UniProt Q12866)
IRAK4 (human) = IRAK4 (human) (UniProt Q9NWZ3)
CDC2L2 (human) = CDC2L2 (human) (UniProt Q9UQ88)
MAPK4 (human) = MAPK4 (human) (UniProt P31152)
EPHB1 (human) = EPHB1 (human) (UniProt P54762)
STK36 (human) = STK36 (human) (UniProt Q9NRP7)
CDKL2 (human) = CDKL2 (human) (UniProt Q92772)
PAK3 (human) = PAK3 (human) (UniProt O75914)
PAK3 (human), sequence (O75914 whole entry, looked up): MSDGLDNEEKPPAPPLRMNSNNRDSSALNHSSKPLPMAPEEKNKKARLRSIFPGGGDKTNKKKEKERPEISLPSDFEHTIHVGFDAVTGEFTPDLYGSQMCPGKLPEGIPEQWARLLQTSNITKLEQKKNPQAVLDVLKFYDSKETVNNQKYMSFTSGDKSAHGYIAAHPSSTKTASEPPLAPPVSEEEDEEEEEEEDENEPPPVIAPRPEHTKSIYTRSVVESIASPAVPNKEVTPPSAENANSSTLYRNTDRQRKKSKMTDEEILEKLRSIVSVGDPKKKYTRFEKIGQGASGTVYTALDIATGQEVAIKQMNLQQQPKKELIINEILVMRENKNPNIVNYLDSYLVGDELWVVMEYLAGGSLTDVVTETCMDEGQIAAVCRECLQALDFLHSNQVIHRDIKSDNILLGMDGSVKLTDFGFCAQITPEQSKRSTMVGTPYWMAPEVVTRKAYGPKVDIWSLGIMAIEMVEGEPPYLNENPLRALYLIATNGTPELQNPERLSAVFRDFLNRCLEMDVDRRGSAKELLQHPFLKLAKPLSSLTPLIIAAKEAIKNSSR

MAPK11 (human) = MAPK11 (human) (UniProt Q15759)
LYN (human) = LYN (human) (UniProt P07948)
CDK4 CCND3 (human) = CDK4 CCND3 (human) (UniProt P11802+P30281)
MAPK6 (human) = MAPK6 (human) (UniProt Q16659)
[4] = system: EGFR (human), P00533 [L858R]
BRSK1 (human) = BRSK1 (human) (UniProt Q8TDC3)
MARK1 (human) = MARK1 (human) (UniProt Q9P0L2)

| Structure (SMILES) | kinase still bound, per cent of control (PAK2 (human)) | kinase still bound, per cent of control (SRPK3 (human)) | kinase still bound, per cent of control (MAP3K12 (human)) | kinase still bound, per cent of control (NLK (human)) | kinase still bound, per cent of control [1] | kinase still bound, per cent of control (STK10 (human)) | kinase still bound, per cent of control (DDR1 (human)) | kinase still bound, per cent of control (STK17B (human)) | kinase still bound, per cent of control (FGFR3 (human)) | kinase still bound, per cent of control (PLK4 (human)) | kinase still bound, per cent of control (EIF2AK2 (human)) | kinase still bound, per cent of control (SRPK2 (human)) | kinase still bound, per cent of control (LCK (human)) | kinase still bound, per cent of control [2] | kinase still bound, per cent of control (MAP2K4 (human)) | kinase still bound, per cent of control (DSTYK (human)) | kinase still bound, per cent of control (BMPR1A (human)) | kinase still bound, per cent of control (TTK (human)) | kinase still bound, per cent of control (GRK1 (human)) | kinase still bound, per cent of control (MAPK8 (human)) | also measured |
| --- | --- | --- | --- | --- | --- | --- | --- | --- | --- | --- | --- | --- | --- | --- | --- | --- | --- | --- | --- | --- | --- |
| COc1cc2ncnc(Nc3cccc(Cl)c3)c2cc1OC | 53% | 93% | 92% | 43% | 55% | 1.5% | 1.9% | 40% | 99% | 30% | 52% | 62% | 5.4% | 0.1% | 85% | 43% | 55% | 61% | 100% | 38% | kinase still bound, per cent of control (MKNK2 (human)): 3.9%; kinase still bound, per cent of control (ANKK1 (human)): 63%; kinase still bound, per cent of control (EPHB6 (human)): 16%; kinase still bound, per cent of control [3]: 59%; kinase still bound, per cent of control (MAPK13 (human)): 100%; kinase still bound, per cent of control (MERTK (human)): 71%; kinase still bound, per cent of control (IRAK4 (human)): 8.9%; kinase still bound, per cent of control (CDC2L2 (human)): 77%; kinase still bound, per cent of control (MAPK4 (human)): 16%; kinase still bound, per cent of control (EPHB1 (human)): 67%; kinase still bound, per cent of control (STK36 (human)): 54%; kinase still bound, per cent of control (CDKL2 (human)): 84%; kinase still bound, per cent of control (PAK3 (human)): 25%; kinase still bound, per cent of control (MAPK11 (human)): 57%; kinase still bound, per cent of control (LYN (human)): 11%; kinase still bound, per cent of control (CDK4 CCND3 (human)): 93%; kinase still bound, per cent of control (MAPK6 (human)): 33%; kinase still bound, per cent of control [4]: 0.05%; kinase still bound, per cent of control (BRSK1 (human)): 37%; kinase still bound, per cent of control (MARK1 (human)): 100% |
| N#Cc1cc(-c2ccnc(Nc3ccc(-n4cnc(-c5cccnc5)n4)cc3)n2)cc(N2CCOCC2)c1 | 72% | 23% | 63% | 76% | 72% | 39% | 100% | 56% | 74% | 22% | 48% | 34% | 48% | 71% | 2.8% | 76% | 28% | 73% | 100% | 0.05% | kinase still bound, per cent of control (MKNK2 (human)): 34%; kinase still bound, per cent of control (ANKK1 (human)): 55%; kinase still bound, per cent of control (EPHB6 (human)): 14%; kinase still bound, per cent of control [3]: 50%; kinase still bound, per cent of control (MAPK13 (human)): 61%; kinase still bound, per cent of control (MERTK (human)): 57%; kinase still bound, per cent of control (IRAK4 (human)): 100%; kinase still bound, per cent of control (CDC2L2 (human)): 25%; kinase still bound, per cent of control (MAPK4 (human)): 5%; kinase still bound, per cent of control (EPHB1 (human)): 90%; kinase still bound, per cent of control (STK36 (human)): 15%; kinase still bound, per cent of control (CDKL2 (human)): 2%; kinase still bound, per cent of control (PAK3 (human)): 100%; kinase still bound, per cent of control (MAPK11 (human)): 79%; kinase still bound, per cent of control (LYN (human)): 78%; kinase still bound, per cent of control (CDK4 CCND3 (human)): 12%; kinase still bound, per cent of control (MAPK6 (human)): 0.95%; kinase still bound, per cent of control [4]: 54%; kinase still bound, per cent of control (BRSK1 (human)): 85%; kinase still bound, per cent of control (MARK1 (human)): 84% |
| C=CC(=O)Nc1ccc(C(=O)c2sc(Nc3ccc(N4CCN(C)CC4)cc3OC)nc2N)cc1 | 68% | 54% | 79% | 76% | 92% | 100% | 100% | 100% | 78% | 43% | 100% | 95% | 89% | 3% | 24% | 4.7% | 91% | 0.7% | 100% | 4.2% | kinase still bound, per cent of control (MKNK2 (human)): 29%; kinase still bound, per cent of control (ANKK1 (human)): 100%; kinase still bound, per cent of control (EPHB6 (human)): 64%; kinase still bound, per cent of control [3]: 70%; kinase still bound, per cent of control (MAPK13 (human)): 100%; kinase still bound, per cent of control (MERTK (human)): 100%; kinase still bound, per cent of control (IRAK4 (human)): 92%; kinase still bound, per cent of control (CDC2L2 (human)): 87%; kinase still bound, per cent of control (MAPK4 (human)): 100%; kinase still bound, per cent of control (EPHB1 (human)): 98%; kinase still bound, per cent of control (STK36 (human)): 90%; kinase still bound, per cent of control (CDKL2 (human)): 86%; kinase still bound, per cent of control (PAK3 (human)): 100%; kinase still bound, per cent of control (MAPK11 (human)): 4.1%; kinase still bound, per cent of control (LYN (human)): 100%; kinase still bound, per cent of control (CDK4 CCND3 (human)): 0.55%; kinase still bound, per cent of control (MAPK6 (human)): 90%; kinase still bound, per cent of control [4]: 39%; kinase still bound, per cent of control (BRSK1 (human)): 98%; kinase still bound, per cent of control (MARK1 (human)): 93% |
